The text below walks through data of patent publication US20260000496A1, “MATERIALS AND METHODS FOR DRUG-INDUCED GINGIVAL OVERGROWTH” (Optimed Technology, Inc., priority 2019, published 2026).

The structures appear in SMILES notation.

Data set [1] can be described thus: Folic acid release from PLG(A) microspheres in methylcellulose gel. In kind it is physicochemical. As for the experimental part: Folic acid was encapsulated in polylactic-colycolide (PLG) microspheres that were visualized using scanning electron microscopy (SEM) (A). These microspheres were embedded within a methylcellulose gel to enable oral applications and visualized using SEM (B). Controlled release of folic acid of a protracted time course was examined using spectroscopy and cumulative release was calculated (C).
In order to deliver the Folic acid treatment, a controlled release system with polylactic glycolic acid (PLGA) and methylcellulose gel were used (FIG. 36). Release kinetics of folic acid increased over time and noted to continue until day 21. The amount of the released Folic acid was approximate 400 μg/ml on day 1 and reached 800 μg/ml on day 21 due to bulk deterioration of polymer.
Microsphere Fabrication. The folic acid was encapsulated in poly (lactide-co-glycolide) (PLG) (8515DLG7E, Lakeshore Biomaterials, Birmingham, AL, USA) microspheres using double emulsion solvent evaporation method. Briefly, a 100 μL quantity of proteins dissolved in molecular-grade water was pipetted into 1 mL of 5% PLG in ethyl acetate (Sigma-Aldrich Corp., St. Louis, MO, USA) and sonicated (Sonics and Materials Inc., Newtown, CT, USA) on 50% magnitude for 1 min. A second emulsion composed of 1% […] (PVA) (Sigma-Aldrich) and 7% ethyl acetate was then added and vortexed for 15 sec. The solution was then added to a 1% PVA solution with continuous stirring for 3 hrs at room temperature and filtered through a 0.2-μm filter (Nalgene, ThermoFisher Scientific, Rockville, MD, USA), collected by centrifugation at 2,000 rpm for 10 min (Eppendorf, Hamburg, Germany), freeze-dried for 16 hrs (Labconco, Kansas City, MO, USA), and stored at −20° C. The microspheres fabricated with this technique were between 2 and 200 microns.
Gel preparation and folic acid release study. Folic acid (100 μg/ml) (Sigma-Aldrich, St Louis, MO) was encapsulated in PLG microspheres as described above. The resulting lyophilized powder was formulated into an oral gel containing 20 mg of folic acid microspheres mixed with 5% of methylcellulose (Sigma-Aldrich, St Louis, MO) in 330 μl of phosphate buffer saline. The gels were prepared fresh daily before applications and repeated until end of the study period (14 days).

The test system of a further data set is Myd88. The experiment in a line: Mice study #1: Myd88 immunohistochemistry of gingival tissue. Format: in vivo. The note with it: BALB/c. As for the experimental part: Mice study #1: Pilot study to establish DIGO disease model. Sterile sutures (5-0 Silk thread, Ethicon, Johnson & Johnson, Somerville, NJ) were placed around the lower central incisors on both sides in BALB/c (Male) mice anaesthetized conditions using Ketamine (90-100 mg/kg bodyweight) and Xylazine (5-10 mg/kg body weight) using a 0.1 cc syringe with a 25-gauge needle intraperitoneally (FIG. 37). Mice were checked daily for intact suture placement and replaced when necessary. […] The controls were injected with the vehicle used to dissolve the drug, which was 10% ethanol and 10% polyethylene glycol castor oil (both Sigma-Aldrich, St. Louis MO) in distilled water. For preventive treatments, Folic acid was supplemented in the drinking water (10 μg/ml) ad libitum and methylcellulose gel with the Folic acid (100 μg/ml) microspheres was applied daily on the anterior gingiva. The three groups in this study were: • 1. Control group (n=1): no interventions were performed • 2. […] Treatments were continued for 28 days and digital images were captured over the time course.
Histopathology and Immunohistochemistry. […]
Immunohistochemical analysis. […] Then, we examined the histopathological images of the mice model type BALB/c and we assessed the expressions of the Myd88 in the disease group in comparison to the negative control and Folic acid treated group. […]

Take `Nc1nc2ncc(CNc3ccc(C(=O)N[C@@H](CCC(=O)O)C(=O)O)cc3)nc2c(=O)[nH]1` [folic acid]: the “release of folic acid from polymeric microspheres” value in data set [1] (FIG. 20) was “sustained release”. In data set [1] (controlled release system with PLGA and methylcellulose gel), the “release of folic acid noted to continue until” value was found to be 21 days. For the same compound, the “amount of the released Folic acid” value in data set [1] (controlled release system with PLGA and methylcellulose gel, day 1) is around 400 µg/mL; in data set [1] (controlled release system with PLGA and methylcellulose gel, day 21) it was 800 µg/mL. The “Myd88 expression in the epithelium, disease group relative to folic acid prevention group” value in the data set with Myd88 is “significantly higher compared to the prevention and control groups”.
